In series [1] the test system is SH-SY5Y neuroblastoma cells. Put plainly: Toxic a-synuclein oligomer induced increase of intracellular reactive oxygen species. In kind it is cell-based, human. The procedure: A stock solution of 80 μM toxic a-synuclein oligomer (prepared as described in example 3) and a stock solution of 80 μM toxic a-synuclein oligomer and 80 μM of the tested inhibitor are prepared in PBS and incubated for 15 min at 20° C. before being added to cell-containing wells as described below.
Human SH-SY5Y neuroblastoma cells (ATCC, #CRL-2266) cultured in growth medium (Eagle's Minimum Essential Medium (EMEM) supplemented with 10% […] (FBS)) are seeded onto a glass slide mounted with 8 removable wells (e.g., Nunc Lab-Tek II Chamber Slide System, #154941) with 0.5 mL cells/well at 0.5×10^6 cells/mL in growth medium for 24 h at 37° C. and 5% C02. […]
Then, a fluorogenic reagent for oxidative stress detection in live cells (e.g., a CellRox® reagent from Invitrogen, Carlsbad, USA, such as CellRox® Green) is added (final concentration of CellRox® Green 5 μM). […] The intracellular fluorescence of the treated SH-SY5Y cells is then analyzed with a confocal microscope (e.g. a Leica TCS SP5, Leica Microsystems, Wetzlar, Germany, with a HCX PL APO 63×1.4 oil immersion objective) equipped with a camera, using wave lengths for excitation and detection which are suitable for the used oxidative stress detection agent (for CellRox® Green: excitation at 488 nm and detection at 515-560 nm). […] ROS fluorescence are calculated from mean of 100 cells.

In a further series the target is T1, a-synuclein fibrils (Homo sapiens, UniProt P37840, N122C).
T1 construct: made in house; host or cells: Escherichia coli BL21 (DE3), pET21a
Put plainly: dcFCCS and smFRET analysis of binding to a-synuclein fibrils. The note with it: peptide labeled with Atto647N; cross-correlation signal and smFRET events. The procedure: (§1) The relative binding affinities of inhibitors of the present disclosure to toxic a-synuclein oligomers, a-synuclein fibrils, and monomeric a-synuclein can be determined via […] (dcFCCS) as follows.
(§2) Dual-Colour FCCS (dcFCCS) experiments are performed on a Time-Resolved Fluorescence confocal microscope (e.g., MT200 from PicoQuant, Berlin, Germany) with a Time-Correlated Single Photon Counting (TCSPC) unit. Pulsed Interleaved Excitation (PIE) is used at laser powers of 6 μW (481 nm) and 5 μW (637 nm) measured after the dichroic mirror for optimal count rates while avoiding photobleaching and saturation. The coverslip is placed directly on the immersion water on top of the objective (e.g., Super Apochromat 60×NA 1.2 objective with a correction collar). The dichroic 488/640 nm is chosen as the main beam splitter. A 50 μm pinole is used. The emission light beam is split by a 50/50 beamsplitter into 2 detection paths. […] The software is also used for fitting the FCS and FCCS data as well as for a PIE-FRET analysis of the data from which the FRET efficiency (E) is calculated.
(§3) The binding of inhibitors of the present disclosure to toxic a-synuclein oligomers, a-synuclein fibrils, and monomeric a-synuclein can be determined via Förster resonance energy transfer (smFRET) as follows. […]

In series [2] the target is T2, toxic a-synuclein oligomer (type B*) (Homo sapiens, UniProt P37840, N122C).
T2 construct: made in house; host or cells: Escherichia coli BL21 (DE3), pET21a
Put plainly: dcFCCS and smFRET analysis of binding to toxic a-synuclein oligomer. The note with it: peptide labeled with Atto647N; cross-correlation signal and smFRET events. On the procedure: as §1, §2, §3

The target of a further series is T3, a-synuclein monomer (Homo sapiens, UniProt P37840, N122C).
T3 construct: made in house; host or cells: Escherichia coli BL21 (DE3), pET21a
Put plainly: dcFCCS and smFRET analysis of binding to a-synuclein monomer. The following applies: peptide labeled with Atto647N. The procedure: as §1, §2, §3

Series [3] deals with T4, non-toxic a-synuclein oligomer (type A*) (Homo sapiens, UniProt P37840, N122C).
T4 construct: made in house; host or cells: Escherichia coli BL21 (DE3), pET21a
Put plainly: dcFCCS and smFRET analysis of binding to non-toxic a-synuclein oligomer. The following applies: peptide labeled with Atto647N.

In the next series the target is T5, a-synuclein (Homo sapiens, UniProt P37840).
T5 construct: made in house; host or cells: Escherichia coli BL21 (DE3), pET21a
Put plainly: a-synuclein aggregation kinetics assay (thioflavin-T). The note with it: 70 μM a-synuclein, Th-T, equimolar and substoichiometric peptide concentrations, 32 h. In kind it is biochemical. The procedure:
a-synuclein aggregation can be monitored as described in Pujols et al., 2018. Specifically, inhibition of in vitro a-synuclein aggregation at equimolar concentrations of a-synuclein and the tested inhibitor can be determined as follows:
A 96 well microtiter plate is prepared to contain, in each well, a Teflon polyball (3.175 mm in diameter, e.g., from Polysciences Europe GmbH, Eppelheim, Germany) and 150 μl of PBS containing 70 μM a-synuclein (prepared from diluting the 0.22 μm-filtered 210 μM a-synuclein solution described in example 1), 40 μM thioflavin-T and 70 μM of the tested inhibitor. 150 μl/well of PBS containing 70 μM a-synuclein and 40 μM thioflavin-T is used as a control. […] Every two hours, the fluorescence intensity is measured (e.g. using a Victor3.0 Multilabel Reader, PerkinElmer Waltham, MA, USA) by exciting the mixtures at 430-450 nm and measuring the emission intensity at 480-510 nm. […]
Parallel wells (e.g. triplicates) are prepared for each tested inhibitor and the control. For the measurement of each time interval, the measured fluorescence intensity of the respective parallel wells is averaged and then normalized to the maximum fluorescence of the control (a-synuclein without inhibitor) and fitted to the Finke-Watzky curve, accounting for fibril elongation and secondary nucleation. […]

With LL-37, in series [1] (coincubated with a-synuclein toxic oligomers, 10 μM), the “generation of reactive oxygen species” value is reported as “reduce the generation of reactive oxygen species”. Further, at a-synuclein fibrils, the “interaction with a-synuclein fibrils” value was “interact with”. For the same compound, in series [2], the “interaction with toxic a-synuclein oligomer” value was “interact with”. Moreover, the “interaction with a-synuclein monomer” value on a-synuclein monomer was “not”. For the same compound, in series [3], the “interaction with non-toxic a-synuclein oligomer” value is given as “not”. In addition, the “inhibition of a-synuclein aggregation” value against a-synuclein was “inhibit a-synuclein aggregation”.

`CSCC[C@H](N)C(=O)N[C@@H](CCC(=O)O)C(=O)N[C@@H](Cc1ccccc1)C(=O)N[C@H](C(=O)N[C@@H](C)C(=O)N[C@@H](CCCCN)C(=O)N[C@@H](CC(C)C)C(=O)N[C@@H](Cc1ccccc1)C(=O)N[C@@H](CCCCN)C(=O)N[C@@H](Cc1ccccc1)C(=O)N[C@@H](Cc1ccccc1)C(=O)N[C@@H](CCCCN)C(=O)N[C@@H](CC(=O)O)C(=O)N[C@@H](CC(C)C)C(=O)N[C@@H](CC(C)C)C(=O)NCC(=O)N[C@@H](CCCCN)C(=O)N[C@@H](Cc1ccccc1)C(=O)N[C@@H](CC(C)C)C(=O)NCC(=O)N[C@@H](CC(N)=O)C(=O)N[C@@H](CC(N)=O)C(=O)O)C(C)C` [PSMα3]: the “cytotoxicity of toxic aS oligomers” value in series [1] (neuroblastoma cell culture) is on record as “reduced cytotoxicity”.

The values are drawn from patent US20230340037A1, “INHIBITORS OF ?-SYNUCLEIN AGGREGATION AND USES THEREOF” (U[…] DE BARCELONA, priority 2020, published 2023).
